Test results from patent US12295396B2, “Antagonists of T2R54 and compositions and uses thereof” (Firmenich Incorporated, priority 2018, dated 2025).
Where two headings read alike, the source gives them in different places.

Biological target: T1, hT2R54 (Homo sapiens, UniProt P59534)
T1 construct: expressed in transfected cells; it overexpresses a promiscuous G protein
T1 sequence (P59534 1-338): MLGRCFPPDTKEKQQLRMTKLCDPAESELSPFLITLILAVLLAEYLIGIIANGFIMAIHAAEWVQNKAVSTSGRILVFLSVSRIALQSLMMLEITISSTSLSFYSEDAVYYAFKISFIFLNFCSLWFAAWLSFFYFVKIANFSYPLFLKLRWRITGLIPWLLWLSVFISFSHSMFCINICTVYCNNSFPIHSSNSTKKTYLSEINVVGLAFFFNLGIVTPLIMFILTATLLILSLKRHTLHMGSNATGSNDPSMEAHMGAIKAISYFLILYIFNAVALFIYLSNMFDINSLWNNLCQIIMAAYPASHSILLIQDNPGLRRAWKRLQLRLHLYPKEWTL
Test: Cell-based assay for measuring hT2R54 inhibition (FLIPR calcium, Fluo4AM, acetaminophen as bitter agonist)
Summary of the method: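 The readout was FLIPR calcium (Fluo4AM, 10 s baseline, 3 min post-addition) in cells stably carrying hT2R54 plus a promiscuous G protein, with host cells lacking hT2R54 as counter-control. Acetaminophen concentration series were tested with and without set test-compound levels. Half-maximal block of the agonist response gave the EC50/IC50.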

[1] = Table 7, cells stably expressing hT2R54 and a promiscuous G protein, read-out: hT2R54 IC50
[2] = given in example heading, read-out: IC50

SMILES	IC50 (Table 8, read-out: hT2R54 IC50) [nM]	other results
CC(=O)c1cc2c(cc1NC(=O)CN(C)C1CCN(C(=O)CC(C)C)CC1)OCO2 [compound 184, N-(6-Acetylbenzo[d][1,3]dioxol-5-yl)-2-(methyl(1-(3-methylbutanoyl)piperidin-4-yl)amino)acetamide]	–	IC50 [1]: 98 nM
CC(=O)c1cc2c(cc1NC(=O)CN(C)C1CCCN(C(=O)CC(C)C)C1)OCO2 (stereo not shown) [compound 185]	–	IC50 [1]: 50 nM
CC(=O)c1cc2c(cc1NC(=O)CN(C)C1CCCN(C(=O)c3ccco3)C1)OCO2 (stereo not shown) [compound 186]	–	IC50 [1]: 20 nM
CC(=O)c1cc2c(cc1NC(=O)CN(C)C1CCCN(C(=O)c3cccnc3)C1)OCO2 (stereo not shown) [compound 187]	–	IC50 [1]: 100 nM
CCOC(=O)N1CCCC(N(C)CC(=O)Nc2cc3c(cc2C(C)=O)OCO3)C1 (stereo not shown) [compound 188]	–	IC50 [1]: 90 nM
CCNC(=O)N1CCCC(N(C)CC(=O)Nc2cc3c(cc2C(C)=O)OCO3)C1 (stereo not shown) [compound 189]	–	IC50 [1]: 30 nM
CCCS(=O)(=O)N1CCCC(N(C)CC(=O)Nc2cc3c(cc2C(C)=O)OCO3)C1 (stereo not shown) [compound 190]	–	IC50 [1]: 40 nM
CCOC(=O)C1CN(C(=O)c2ccco2)CCN1CC(=O)Nc1cc2c(cc1C(C)=O)OCO2 (stereo not shown) [compound 191, Ethyl 1-(2-((6-Acetylbenzo[d][1,3]dioxol-5-yl)amino)-2-oxoethyl)-4-(furan-2-carbonyl)piperazine-2-carboxylate]	–	IC50 [2]: 16 nM
CCOC(=O)C1CN(C(=O)CC(C)C)CCN1CC(=O)Nc1cc2c(cc1C(C)=O)OCO2 (stereo not shown) [compound 192, Ethyl 1-(2-((6-Acetylbenzo[d][1,3]dioxol-5-yl)amino)-2-oxoethyl)-4-(3-methylbutanoyl)piperazine-2-carboxylate]	–	IC50 [2]: 57 nM
CC(=O)c1cc2c(cc1NC(=O)CC1CCCN(C(=O)c3ccco3)C1)OCO2 (stereo not shown) [compound 194, N-(6-Acetylbenzo[d][1,3]dioxol-5-yl)-2-(1-(furan-2-carbonyl)piperidin-3-yl)acetamide]	6	–
CC(=O)c1cc2c(cc1NC(=O)CC1CCN(C(=O)CC(C)C)CC1)OCO2 [compound 198, N-(6-acetylbenzo[d][1,3]dioxol-5-yl)-2-(1-(3-methylbutanoyl)piperidin-4-yl)acetamide]	45	–
CC(=O)c1cc2c(cc1NC(=O)CC1CCN(C(=O)c3cccs3)CC1)OCO2 [compound 199, N-(6-Acetylbenzo[d][1,3]dioxol-5-yl)-2-(1-(thiophene-2-carbonyl)piperidin-4-yl)acetamide]	12	–
CC(=O)c1cc2c(cc1NC(=O)CC1CCN(C(=O)c3ccoc3)CC1)OCO2 [compound 200, N-(6-Acetylbenzo[d][1,3]dioxol-5-yl)-2-(1-(furan-3-carbonyl)piperidin-4-yl)acetamide]	149	–
CC(=O)c1cc2c(cc1NC(=O)CC1CCN(C(=O)c3cnn(C)c3)CC1)OCO2 [compound 201, N-(6-Acetylbenzo[d][1,3]dioxol-5-yl)-2-(1-(1-methyl-1H-pyrazole-4-carbonyl)piperidin-4-yl)acetamide]	339	–
CC(=O)c1cc2c(cc1NC(=O)CC1CCCN(C(C)=O)C1)OCO2 (stereo not shown) [compound 202]	35	–
CCC(=O)N1CCCC(CC(=O)Nc2cc3c(cc2C(C)=O)OCO3)C1 (stereo not shown) [compound 203]	17	–
CCCC(=O)N1CCCC(CC(=O)Nc2cc3c(cc2C(C)=O)OCO3)C1 (stereo not shown) [compound 204]	16	–
CC(=O)c1cc2c(cc1NC(=O)CC1CCCN(C(=O)C(C)C)C1)OCO2 (stereo not shown) [compound 205]	12	–
CC(=O)c1cc2c(cc1NC(=O)CC1CCCN(C(=O)CC(C)(C)C)C1)OCO2 (stereo not shown) [compound 207]	360	–
CCOC(=O)N1CCCC(CC(=O)Nc2cc3c(cc2C(C)=O)OCO3)C1 (stereo not shown) [compound 213]	50	–
CC(=O)c1cc2c(cc1NC(=O)CC1CCCN(C(=O)OC(C)C)C1)OCO2 (stereo not shown) [compound 215]	160	–
CC(=O)c1cc2c(cc1NC(=O)CC1CCCN(C(=O)c3cccc(O)c3)C1)OCO2 (stereo not shown) [compound 218]	> 1000	–
CC(=O)c1cc2c(cc1NC(=O)CC1CCCN(C(=O)c3ccc(O)cc3)C1)OCO2 (stereo not shown) [compound 219]	1460	–
CC(=O)c1cc2c(cc1NC(=O)C[C@@H]1CCCN(C(=O)c3ccco3)C1)OCO2 [compound 220]	~10	–
CC(=O)c1cc2c(cc1NC(=O)CC1CCCN(S(C)(=O)=O)C1)OCO2 (stereo not shown) [compound 222]	60	–
CCCS(=O)(=O)N1CCCC(CC(=O)Nc2cc3c(cc2C(C)=O)OCO3)C1 (stereo not shown) [compound 224]	40	–
CC(=O)c1cc2c(cc1NC(=O)CC1CCCN(S(=O)(=O)c3ccco3)C1)OCO2 (stereo not shown) [compound 227]	130	–
COCc1ccc(C(=O)N2CCCC(CC(=O)Nc3cc4c(cc3C(C)=O)OCO4)C2)o1 (stereo not shown) [compound 228]	20	–

The next lines start with results.

IC50 (Table 8, read-out: hT2R54 IC50) [nM]	SMILES	other results
17	CC(=O)c1cc2c(cc1NC(=O)CC1CCCN(C(=O)CC(C)C)C1)OCO2 (stereo not shown) [compound 193, N-(6-acetylbenzo[d][1,3]dioxol-5-yl)-2-(1-(3-methylbutanoyl)piperidin-3-yl)acetamide]	–
8	CC(=O)c1cc2c(cc1NC(=O)CC1CCCN(C(=O)c3cccs3)C1)OCO2 (stereo not shown) [compound 195, N-(6-Acetylbenzo[d][1,3]dioxol-5-yl)-2-(1-(thiophene-2-carbonyl)piperidin-3-yl)acetamide]	–
184	CC(=O)c1cc2c(cc1NC(=O)CC1CCCN(C(=O)c3ccoc3)C1)OCO2 (stereo not shown) [compound 196, N-(6-Acetylbenzo[d][1,3]dioxol-5-yl)-2-(1-(furan-3-carbonyl)piperidin-3-yl)acetamide]	–
6	CC(=O)c1cc2c(cc1NC(=O)CC1CCN(C(=O)c3ccco3)CC1)OCO2 [compound 197, N-(6-Acetylbenzo[d][1,3]dioxol-5-yl)-2-(1-(furan-2-carbonyl)piperidin-4-yl)acetamide]	–
25	CC(=O)c1cc2c(cc1NC(=O)C[C@@H]1CCCN(C(=O)CC(C)C)C1)OCO2 [compound 206]	–
170	CCC(C)C(=O)N1CCCC(CC(=O)Nc2cc3c(cc2C(C)=O)OCO3)C1 (stereo not shown) [compound 208]	–
56	CC(=O)c1cc2c(cc1NC(=O)CC1CCCN(C(=O)C3CCCO3)C1)OCO2 (stereo not shown) [compound 209]	–
1340	CC(=O)c1cc2c(cc1NC(=O)CC1CCCN(C(=O)C3CCOC3)C1)OCO2 (stereo not shown) [compound 210]	–
18	CC(=O)c1cc2c(cc1NC(=O)CC1CCCN(C(=O)C3CCCCO3)C1)OCO2 (stereo not shown) [compound 211]	–
> 1000	CC(=O)c1cc2c(cc1NC(=O)CC1CCCN(C(=O)CN(C)C)C1)OCO2 (stereo not shown) [compound 212]	–
320	CCCOC(=O)N1CCCC(CC(=O)Nc2cc3c(cc2C(C)=O)OCO3)C1 (stereo not shown) [compound 214]	–
80	CC(=O)c1cc2c(cc1NC(=O)CC1CCCN(C(=O)c3ccccc3)C1)OCO2 (stereo not shown) [compound 216]	–
480	CC(=O)c1cc2c(cc1NC(=O)CC1CCCN(C(=O)c3ccccc3O)C1)OCO2 (stereo not shown) [compound 217]	–
60	CC(=O)c1cc2c(cc1NC(=O)CC1CCCN(C(=O)c3cnn(C)c3)C1)OCO2 (stereo not shown) [compound 221]	–
40	CCS(=O)(=O)N1CCCC(CC(=O)Nc2cc3c(cc2C(C)=O)OCO3)C1 (stereo not shown) [compound 223]	–
70	CCCCS(=O)(=O)N1CCCC(CC(=O)Nc2cc3c(cc2C(C)=O)OCO3)C1 (stereo not shown) [compound 225]	–
160	CC(=O)c1cc2c(cc1NC(=O)CC1CCCN(S(=O)(=O)CC(C)C)C1)OCO2 (stereo not shown) [compound 226]	–
220	CC(=O)c1cc2c(cc1NC(=O)CC1CN(C(=O)CC(C)C)CCO1)OCO2 (stereo not shown) [compound 229]	–
